# Results taken from BindingDB's records for patent US20230364079 (Chengdu Hyperway Pharmaceuticals, 2023).
# pIC50: −log10 of the molar value.
# Target: Tyrosine-protein kinase BTK (Homo sapiens, UniProt Q06187)
# Assay: BTK Kinase Activity Inhibition Test in Vitro
# Chain of Tyrosine-protein kinase BTK (Q06187 whole entry): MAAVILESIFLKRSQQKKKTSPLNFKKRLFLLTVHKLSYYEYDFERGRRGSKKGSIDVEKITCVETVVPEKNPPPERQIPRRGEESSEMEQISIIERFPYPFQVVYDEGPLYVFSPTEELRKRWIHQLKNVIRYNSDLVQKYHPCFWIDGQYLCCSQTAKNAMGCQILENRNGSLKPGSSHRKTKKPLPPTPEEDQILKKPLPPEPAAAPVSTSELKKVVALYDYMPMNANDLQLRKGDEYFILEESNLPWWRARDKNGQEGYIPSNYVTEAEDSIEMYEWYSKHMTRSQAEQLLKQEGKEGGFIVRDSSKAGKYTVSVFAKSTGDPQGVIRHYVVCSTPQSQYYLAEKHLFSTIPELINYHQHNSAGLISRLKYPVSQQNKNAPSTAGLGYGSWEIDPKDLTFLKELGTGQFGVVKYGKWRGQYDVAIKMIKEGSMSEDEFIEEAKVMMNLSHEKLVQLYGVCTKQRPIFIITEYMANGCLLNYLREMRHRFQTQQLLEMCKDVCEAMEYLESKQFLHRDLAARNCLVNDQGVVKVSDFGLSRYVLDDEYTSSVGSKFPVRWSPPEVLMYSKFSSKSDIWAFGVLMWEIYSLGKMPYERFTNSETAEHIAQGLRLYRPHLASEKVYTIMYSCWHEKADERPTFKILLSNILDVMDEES
row,pIC50,Compound
1,> 8.30,"Nc1ncc(Cl)n2c(C3CCC(CO)OC3)nc(-c3ccc(Oc4cccc(OC(F)(F)F)c4F)cc3)c12 (stereo unspecified) [US20230364079, Example 14]"
2,> 8.30,"COc1cccc(Oc2ccc(-c3nc(C4CCC(CO)OC4)n4c(Cl)cnc(N)c34)cc2)c1F (stereo unspecified) [US20230364079, Example 12]"
3,> 8.30,"Nc1nccn2c(C3CCC(CO)OC3)nc(-c3ccc(Oc4cccc(OC(F)(F)F)c4F)cc3F)c12 (stereo unspecified) [US20230364079, Example 13]"
4,> 8.30,"Nc1nccn2c(C3CCC(CO)OC3)nc(-c3ccc(Oc4cccc(OC(F)(F)F)c4F)cc3)c12 (stereo unspecified) [US20230364079, Example 6]"
5,> 8.30,"COc1cccc(Oc2ccc(-c3nc(C4CCC(CO)OC4)n4c(Cl)cnc(N)c34)c(F)c2)c1F (stereo unspecified) [US20230364079, Example 11]"
6,> 8.30,"Nc1nccn2c(C3CCC(CO)OC3)nc(-c3ccc(Oc4cccc(Cl)c4F)cc3)c12 (stereo unspecified) [US20230364079, Example 9]"
